Laboratory results from ChEMBL document CHEMBL1201862, “PubChem BioAssay data set” (2004).
Each block holds one compound with its values, some of them ahead of it. The source made the active and inactive calls. Unless noted, the rule behind the calls is not given here.

Legend:
[1] = antiviral protection against BTV-induced cell death – arbovirus, BSR cells, confirmation (AID 1250); type: functional;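 also: protection from viral cytopathic effect measured as cell viability by ATP luminescence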
Ion channel NompC = Ion channel NompC (Danio rerio, UniProt Q7T1G6); assay: Fluorescence counterscreen assay for TRPML3 agonists: dose response cell-based high-throughput screening assay to identify agonists of the transient receptor potential channel N1 (TRPN1). [Related pubchem assays: 1526, 1424, 1448 ]; type: functional
Sequence of Ion channel NompC (Q7T1G6 whole entry): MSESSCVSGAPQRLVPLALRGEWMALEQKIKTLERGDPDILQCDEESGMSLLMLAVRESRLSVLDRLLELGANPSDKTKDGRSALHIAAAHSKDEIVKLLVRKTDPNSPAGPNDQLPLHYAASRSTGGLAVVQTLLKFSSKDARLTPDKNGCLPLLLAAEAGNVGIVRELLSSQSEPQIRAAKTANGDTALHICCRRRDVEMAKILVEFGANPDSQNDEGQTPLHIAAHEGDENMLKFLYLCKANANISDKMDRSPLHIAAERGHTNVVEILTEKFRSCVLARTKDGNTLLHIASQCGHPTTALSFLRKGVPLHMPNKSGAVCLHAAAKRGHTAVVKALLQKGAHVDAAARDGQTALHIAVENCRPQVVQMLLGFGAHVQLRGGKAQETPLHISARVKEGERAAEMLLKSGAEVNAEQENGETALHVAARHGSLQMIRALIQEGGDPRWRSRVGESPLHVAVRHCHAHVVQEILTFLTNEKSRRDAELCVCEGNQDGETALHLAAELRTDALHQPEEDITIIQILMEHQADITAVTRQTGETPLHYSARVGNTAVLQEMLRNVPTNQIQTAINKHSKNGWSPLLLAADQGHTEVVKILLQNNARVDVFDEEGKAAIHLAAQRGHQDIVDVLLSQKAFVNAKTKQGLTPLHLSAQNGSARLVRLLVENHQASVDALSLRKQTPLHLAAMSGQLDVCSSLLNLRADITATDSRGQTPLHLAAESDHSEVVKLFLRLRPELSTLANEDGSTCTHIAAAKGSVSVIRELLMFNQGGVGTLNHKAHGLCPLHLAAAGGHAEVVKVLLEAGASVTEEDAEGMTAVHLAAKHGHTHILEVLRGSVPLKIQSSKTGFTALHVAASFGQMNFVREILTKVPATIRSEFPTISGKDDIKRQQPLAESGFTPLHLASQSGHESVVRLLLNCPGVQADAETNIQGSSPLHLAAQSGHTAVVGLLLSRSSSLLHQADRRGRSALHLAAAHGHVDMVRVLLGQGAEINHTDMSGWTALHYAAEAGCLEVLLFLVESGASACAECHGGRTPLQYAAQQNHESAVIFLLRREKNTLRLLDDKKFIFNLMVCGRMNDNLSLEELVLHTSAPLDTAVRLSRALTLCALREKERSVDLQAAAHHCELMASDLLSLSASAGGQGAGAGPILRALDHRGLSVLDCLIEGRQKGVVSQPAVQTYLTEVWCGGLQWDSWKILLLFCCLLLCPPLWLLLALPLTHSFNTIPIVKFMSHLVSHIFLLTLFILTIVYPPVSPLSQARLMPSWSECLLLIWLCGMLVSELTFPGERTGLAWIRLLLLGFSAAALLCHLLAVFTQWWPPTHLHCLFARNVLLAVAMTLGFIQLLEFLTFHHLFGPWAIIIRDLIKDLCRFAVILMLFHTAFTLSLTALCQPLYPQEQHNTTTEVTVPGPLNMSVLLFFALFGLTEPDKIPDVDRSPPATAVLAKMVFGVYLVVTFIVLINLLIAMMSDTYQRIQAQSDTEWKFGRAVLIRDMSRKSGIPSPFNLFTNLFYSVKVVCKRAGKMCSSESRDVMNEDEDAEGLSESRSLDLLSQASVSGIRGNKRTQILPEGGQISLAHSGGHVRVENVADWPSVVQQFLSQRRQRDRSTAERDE

Mucolipin-3 = Mucolipin-3 (Homo sapiens, UniProt Q8TDD5); assay: Dose response cell-based high-throughput screening assay for agonists of the transient receptor potential channel ML3 (TRPML3). [Related pubchem assays: 1526, 1424, 1448 ]; type: functional
Sequence of Mucolipin-3 (Q8TDD5 whole entry): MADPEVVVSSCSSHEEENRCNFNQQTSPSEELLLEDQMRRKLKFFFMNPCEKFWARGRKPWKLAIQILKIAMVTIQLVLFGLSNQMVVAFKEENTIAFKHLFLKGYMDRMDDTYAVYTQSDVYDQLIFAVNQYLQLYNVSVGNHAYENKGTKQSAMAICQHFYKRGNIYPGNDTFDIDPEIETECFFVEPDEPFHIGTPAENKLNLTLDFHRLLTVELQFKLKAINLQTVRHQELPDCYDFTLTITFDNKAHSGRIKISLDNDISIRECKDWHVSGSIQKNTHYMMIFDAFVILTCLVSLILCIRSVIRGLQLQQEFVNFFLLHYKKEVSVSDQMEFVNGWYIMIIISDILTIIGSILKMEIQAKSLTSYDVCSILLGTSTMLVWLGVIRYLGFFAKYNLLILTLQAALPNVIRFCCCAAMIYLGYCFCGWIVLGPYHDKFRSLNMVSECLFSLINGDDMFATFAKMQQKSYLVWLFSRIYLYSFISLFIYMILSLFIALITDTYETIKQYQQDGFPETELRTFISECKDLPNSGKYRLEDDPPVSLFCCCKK

Oxytocin receptor = Oxytocin receptor (Homo sapiens, UniProt P30559); assay: Counterscreen for vasopressin 1 receptor (V1R) agonists: Fluorescence-based cell-based high throughput dose response assay for agonists of the Oxytocin Receptor (OXTR). [Related pubchem assays: 2435 (Primary screen (OXTR agonists in singlicate)), 434964 (Confirmation screen (V1R agonists in triplicate)), 434969 (Counterscreen (OXTR agonists in …; type: functional
Sequence of Oxytocin receptor (P30559 whole entry): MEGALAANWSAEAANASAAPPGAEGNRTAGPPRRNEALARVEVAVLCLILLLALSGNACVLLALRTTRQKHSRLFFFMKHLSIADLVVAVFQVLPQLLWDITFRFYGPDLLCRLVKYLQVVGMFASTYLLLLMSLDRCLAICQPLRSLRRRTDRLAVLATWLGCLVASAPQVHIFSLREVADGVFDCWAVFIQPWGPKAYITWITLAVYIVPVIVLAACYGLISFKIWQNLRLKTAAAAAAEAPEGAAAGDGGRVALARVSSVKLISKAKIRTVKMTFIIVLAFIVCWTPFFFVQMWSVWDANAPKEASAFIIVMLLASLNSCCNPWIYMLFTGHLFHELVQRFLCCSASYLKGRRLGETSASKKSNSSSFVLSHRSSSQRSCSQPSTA

Vasopressin V1a receptor = Vasopressin V1a receptor (Homo sapiens, UniProt P37288); assay: Fluorescence-based cell-based high throughput dose response screening assay for agonists of the vasopressin 1 receptor (V1R).; type: functional
Sequence of Vasopressin V1a receptor (P37288 whole entry): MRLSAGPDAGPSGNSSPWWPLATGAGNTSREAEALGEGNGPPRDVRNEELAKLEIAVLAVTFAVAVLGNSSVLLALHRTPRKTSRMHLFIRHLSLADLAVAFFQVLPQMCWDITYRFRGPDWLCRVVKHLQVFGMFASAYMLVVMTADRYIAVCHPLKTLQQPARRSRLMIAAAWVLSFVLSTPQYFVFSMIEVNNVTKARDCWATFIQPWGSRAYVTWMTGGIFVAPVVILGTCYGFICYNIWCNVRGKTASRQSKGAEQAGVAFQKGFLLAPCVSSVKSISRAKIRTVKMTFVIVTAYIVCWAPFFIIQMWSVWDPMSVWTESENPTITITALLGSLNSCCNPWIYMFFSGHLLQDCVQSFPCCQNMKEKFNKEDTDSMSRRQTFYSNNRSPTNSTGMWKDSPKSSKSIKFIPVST

[2] = biological target: Inward rectifier potassium channel 2 (Mus musculus, UniProt P35561); assay: Manual electrophysiological patch clamp assay for SAR compounds that inhibit/block inward-rectifying potassium ion channel Kir2.1. [Related pubchem assays: 1843 (Summary assay for Kir2.1 inhibitor assays.), 1672 (Primary HTS of 305616 compounds where 2592 were identified as active.)]; type: functional
Sequence of Inward rectifier potassium channel 2 (P35561 whole entry): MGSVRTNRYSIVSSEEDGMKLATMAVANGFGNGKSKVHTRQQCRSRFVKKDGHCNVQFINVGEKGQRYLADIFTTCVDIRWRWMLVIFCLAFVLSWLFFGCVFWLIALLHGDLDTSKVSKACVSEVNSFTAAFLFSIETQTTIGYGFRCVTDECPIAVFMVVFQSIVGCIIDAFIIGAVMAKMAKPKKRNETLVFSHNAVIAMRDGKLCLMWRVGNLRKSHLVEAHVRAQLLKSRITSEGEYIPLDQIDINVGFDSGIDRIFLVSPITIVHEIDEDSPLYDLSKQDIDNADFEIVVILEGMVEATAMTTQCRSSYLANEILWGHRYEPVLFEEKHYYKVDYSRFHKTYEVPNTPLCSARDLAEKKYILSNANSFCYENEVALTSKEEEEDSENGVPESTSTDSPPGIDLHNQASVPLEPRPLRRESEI

[3] = biological target: Induced myeloid leukemia cell differentiation protein Mcl-1 (Homo sapiens, UniProt Q07820); assay: blockers of MCL1 binding to BIM peptide – biochemical, fluorescence polarization, BIM-BH3 peptide, 1536-well, dose response (AID 2217)
Sequence of Induced myeloid leukemia cell differentiation protein Mcl-1 (Q07820 whole entry): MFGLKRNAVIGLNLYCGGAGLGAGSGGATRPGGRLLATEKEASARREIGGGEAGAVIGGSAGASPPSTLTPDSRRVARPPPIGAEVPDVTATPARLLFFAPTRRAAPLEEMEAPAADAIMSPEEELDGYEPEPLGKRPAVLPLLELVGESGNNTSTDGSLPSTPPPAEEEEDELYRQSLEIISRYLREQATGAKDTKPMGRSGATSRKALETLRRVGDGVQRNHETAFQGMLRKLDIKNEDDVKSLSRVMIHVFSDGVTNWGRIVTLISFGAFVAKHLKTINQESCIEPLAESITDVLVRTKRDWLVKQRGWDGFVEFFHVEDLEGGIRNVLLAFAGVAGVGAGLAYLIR

Bcl-2-like protein 1 = Bcl-2-like protein 1 (Homo sapiens, UniProt Q07817); assay: blockers of BCLXL peptide binding – biochemical, fluorescence polarization, 1536-well, selectivity assay for MCL1 inhibitor project, dose response (AID 2218)
Sequence of Bcl-2-like protein 1 (Q07817 whole entry): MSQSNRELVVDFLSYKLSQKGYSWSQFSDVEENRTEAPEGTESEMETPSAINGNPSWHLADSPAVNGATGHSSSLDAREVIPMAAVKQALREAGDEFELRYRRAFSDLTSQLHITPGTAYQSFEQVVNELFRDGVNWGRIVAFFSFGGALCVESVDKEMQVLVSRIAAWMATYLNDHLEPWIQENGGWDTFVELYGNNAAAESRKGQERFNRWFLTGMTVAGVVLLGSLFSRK

[4] = Luminescence-based counterscreen assay for KLF5 inhibitors: dose response cell-based high throughput screening assay to identify cytotoxic compounds using the IEC-6 intestinal epithelial cell line. [Related pubchem assays: 1700 (Primary screen.), 1834 (Confirmation screen.), 1858 (Summary AID.), 1905 (Counterscreen.)]; type: functional

SMILES: CCNC(=O)NC(=O)C(C)Sc1nc2cc(C(=O)OC)ccc2c(=O)n1-c1ccccc1 (centres undefined)
IC50 [1]: 28.9 µM (active)

SMILES: COc1ccc(CNCc2ccc(C(C)(C)C)cc2)cc1
IC50 [2]: 1.27 µM (active)

SMILES: O=C(N/N=C/c1cccc(Oc2ccccc2)c1)c1ccccc1F
IC50 [4]: 18.7 µM (not active)

Results, then the compound that gave them:

EC50 (Ion channel NompC): > 29.9 µM (not active)
EC50 (Mucolipin-3): > 29.9 µM (not active)
SMILES: CCC(C(=O)Nc1cc(C)nn1-c1nc(C)cc(C)n1)c1ccccc1 (centres undefined)

EC50 (Oxytocin receptor): > 29.9 µM (not active)
EC50 (Vasopressin V1a receptor): 6.23 µM (active)
SMILES: CC(NC(=O)Nc1ccc(Cl)c(Cl)c1)C(c1ccccc1)N1CCOCC1 (centres undefined)

IC50 [3]: > 109 µM (not active)
IC50 (Bcl-2-like protein 1): > 109 µM (not active)
SMILES: CCOC(=O)C[C@H]1c2ccc(C(F)(F)F)cc2S(=O)(=O)N1c1cccc(OC)c1
